Laboratory results from patent publication US10548877B2, “Aromatic ring compound” (TAKEDA PHARMACEUTICAL COMPANY LIMITED, priority 2016, dated 2020).

Target: T1, human M1 receptor (hCHRM1) (Homo sapiens, UniProt P11229)
T1 construct: expressed in transfected cells
T1 sequence (P11229 1-460): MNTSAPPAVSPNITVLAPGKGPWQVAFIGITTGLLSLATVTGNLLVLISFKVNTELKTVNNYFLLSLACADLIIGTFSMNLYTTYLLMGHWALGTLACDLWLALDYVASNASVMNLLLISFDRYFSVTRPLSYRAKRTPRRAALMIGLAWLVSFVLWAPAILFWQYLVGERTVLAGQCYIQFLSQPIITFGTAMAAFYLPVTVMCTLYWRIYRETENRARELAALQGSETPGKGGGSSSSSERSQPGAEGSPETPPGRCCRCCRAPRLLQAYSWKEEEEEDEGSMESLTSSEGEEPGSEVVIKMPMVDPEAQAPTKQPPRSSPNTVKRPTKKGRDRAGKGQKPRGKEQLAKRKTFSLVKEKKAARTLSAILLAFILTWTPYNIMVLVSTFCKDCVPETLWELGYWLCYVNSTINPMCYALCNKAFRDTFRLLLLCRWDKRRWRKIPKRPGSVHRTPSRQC
Assay: Measurement of M1 receptor positive allosteric modulator (M1PAM) activity (calcium fluorescence, Fluo-4)
Assay type: cell-based
Details: for EC50: inflection point of concentration-dependent curve, CHO-K1 cells stably expressing hCHRM1, in presence of acetylcholine at EC20 (final 0.8-1.0 nM), read-out: IP value; for activity (%) at 10 μM: test compound 10 μM with acetylcholine at EC20, 100% = 1 μM acetylcholine, 0% = DMSO, CHO-K1 cells expressing hCHRM1
Experimental: Measurement of M1 Receptor Positive Allosteric Modulator (M1PAM) Activity
The activity of a test compound in the presence of acetylcholine at EC20 concentration (final concentration 0.8-1.0 nM), which affords an action corresponding to about 20% of the maximum activity, was measured as PAM activity. The method is as follows. CHO-K1 cells stably expressing a human M1 receptor (hCHRM1) were plated on a 384-well black clear bottom plate (BD Falcon) at 5,000 cells/well, and cultured in an incubator at 37° C., 5% CO2 for 1 day. The medium in the cell plate was removed, and assay buffer A containing a calcium indicator (Recording medium (DOJINDO LABORATORIES), 0.1% BSA (Wako Pure Chemical Industries, Ltd.), 2.5 μg/mL Fluo-4 AM (DOJINDO LABORATORIES), 0.08% Pluronic F127 (DOJINDO LABORATORIES) and 1.25 mM probenecid (DOJINDO LABORATORIES) were added at 30 μL/well. The cells were left standing in the incubator at 37° C., 5% CO2 for 30 min, and further left standing at room temperature for 30 min. A test compound prepared by diluting with assay buffer B (HBSS (Invitrogen), 20 mM HEPES (Invitrogen), 0.1% BSA) containing 3.2-4.0 nM acetylcholine was added at 10 μL/well, and the fluorescence was measured by FDSS/pcell (Hamamatsu Photonics K.K.) for 1 min every for 1 second. With the definition that the amount of change in the fluorescence on addition of acetylcholine (final concentration 1 μM) is 100% and that on addition of DMSO instead of a test compound is 0%, the activity (%) of the test compound was calculated, and the inflection point in the concentration-dependent curve of the test compound was calculated as IP values.

Row | Compound | EC50 | activity (%) at 10 μM
1 | COc1c(C(=O)N[C@H]2CCC[C@@H]2O)cc(Cc2ccc(-n3cccn3)cc2)c(C)c1C (relative stereo) [Example 2, N-(trans-2-hydroxycyclopentyl)-2-methoxy-3,4-dimethyl-5-(4-(1H-pyrazol-1-yl)benzyl)benzamide] | 95 nM | 96%
2 | COc1c(C(=O)N[C@H]2CCC[C@@H]2O)cc(Cc2ccc(-c3cn(C)nn3)cc2)c(C)c1C (relative stereo) [Example 4, N-(trans-2-hydroxycyclopentyl)-2-methoxy-3,4-dimethyl-5-(4-(1-methyl-1H-1,2,3-triazol-4-yl)benzyl)benzamide] | 23 nM | 108%
3 | COc1c(C(=O)N[C@@H]2CCCC[C@H]2O)cc(Cc2ccc(-c3cn(C)nn3)cc2)c(C)c1C (single isomer, unassigned) [Example 11, N-(trans-2-hydroxycyclohexyl)-2-methoxy-3,4-dimethyl-5-(4-(1-methyl-1H-1,2,3-triazol-4-yl)benzyl)benzamide] | 37 nM | 97%
4 | COc1c(C(=O)NCC2CCCO2)cc(Cc2ccc(-c3cn(C)nn3)cc2)c(C)c1C (stereo not drawn) [Example 6, 2-methoxy-3,4-dimethyl-5-(4-(1-methyl-1H-1,2,3-triazol-4-yl)benzyl)-N-(tetrahydrofuran-2-ylmethyl)benzamide] | 23 nM | 107%
5 | Cc1c(Cc2ccc(-n3cccn3)cc2)cc(C(=O)N[C@H]2COCC[C@@H]2O)c(F)c1C [Example 12, 2-fluoro-N-((3S,4S)-4-hydroxytetrahydro-2H-pyran-3-yl)-3,4-dimethyl-5-(4-(1H-pyrazol-1-yl)benzyl)benzamide] | 19 nM | 103%
6 | CCOc1c(C(=O)N[C@H]2CCCC[C@@H]2O)cc(Cc2ccc(-c3cn(C)nn3)cc2)c(C)c1C [Example 15, 2-ethoxy-N-((1S,2S)-2-hydroxycyclohexyl)-3,4-dimethyl-5-(4-(1-methyl-1H-1,2,3-triazol-4-yl)benzyl)benzamide] | 14 nM | 100%
7 | Cc1c(Cc2ccc(-c3cn(C)nn3)cc2)cc(C(=O)N[C@H]2CCCC[C@@H]2O)c(OC(C)C)c1C [Example 16, N-((1S,2S)-2-hydroxycyclohexyl)-2-isopropoxy-3,4-dimethyl-5-(4-(1-methyl-1H-1,2,3-triazol-4-yl)benzyl)benzamide] | 30 nM | 99%
8 | Cc1c(Cc2ccc(-c3cn(C)nn3)cc2)cc(C(=O)N[C@H]2CCCC[C@@H]2O)c(OCC2CC2)c1C [Example 17, 2-(cyclopropylmethoxy)-N-((1S,2S)-2-hydroxycyclohexyl)-3,4-dimethyl-5-(4-(1-methyl-1H-1,2,3-triazol-4-yl)benzyl)benzamide] | 40 nM | 99%
9 | Cc1c(Cc2ccc(-c3cn(C)nn3)cc2)cc(C(=O)N[C@H]2CCCC[C@@H]2O)c(OC(F)F)c1C [Example 18, 2-(difluoromethoxy)-N-((1S,2S)-2-hydroxycyclohexyl)-3,4-dimethyl-5-(4-(1-methyl-1H-1,2,3-triazol-4-yl)benzyl)benzamide] | 27 nM | 97%
10 | Cc1c(Cc2ccc(-n3cccn3)nc2)cc(C(=O)N[C@H]2CCC[C@@H]2O)c(F)c1C [Example 19, 2-fluoro-N-((1S,2S)-2-hydroxycyclopentyl)-3,4-dimethyl-5-((6-(1H-pyrazol-1-yl)pyridin-3-yl)methyl)benzamide] | 84 nM | 93%
11 | Cc1c(Cc2ccc(-n3cccn3)nc2)cc(C(=O)N[C@H]2CCCC[C@@H]2O)c(F)c1C [Example 20, 2-fluoro-N-((1S,2S)-2-hydroxycyclohexyl)-3,4-dimethyl-5-((6-(1H-pyrazol-1-yl)pyridin-3-yl)methyl)benzamide] | 31 nM | 97%
12 | COc1c(C(=O)N[C@H]2CCC[C@@H]2O)cc(Cc2ccc(-c3ccn(C)n3)nc2)c(C)c1C [Example 22, N-((1S,2S)-2-hydroxycyclopentyl)-2-methoxy-3,4-dimethyl-5-((6-(1-methyl-1H-pyrazol-3-yl)pyridin-3-yl)methyl)benzamide] | 55 nM | 95%
13 | Cc1c(Cc2ccc(-n3cccn3)cc2)cc(C(=O)N[C@H]2COCC[C@@H]2O)c(F)c1F [Example 25, 1,5-anhydro-2,4-dideoxy-2-((2,3-difluoro-4-methyl-5-(4-(1H-pyrazol-1-yl)benzyl)benzoyl)amino)-L-threo-pentitol] | 33 nM | 97%
14 | COc1c(C(=O)N[C@H]2COCC[C@@H]2O)cc(Cc2ccc(-c3ccn(C)n3)cc2)c(C)c1C [Example 26, 1,5-anhydro-2,4-dideoxy-2-((2-methoxy-3,4-dimethyl-5-(4-(1-methyl-1H-pyrazol-3-yl)benzyl)benzoyl)amino)-L-threo-pentitol] | 31 nM | 99%
15 | COc1c(C(=O)N[C@H]2COCC[C@@H]2O)cc(Cc2ccc(-n3cccn3)cc2)c(C)c1C [Example 27, 1,5-anhydro-2,4-dideoxy-2-((2-methoxy-3,4-dimethyl-5-(4-(1H-pyrazol-1-yl)benzyl)benzoyl)amino)-L-threo-pentitol] | 39 nM | 100%

Stronger by EC50, values ahead:

Row | EC50 | activity (%) at 10 μM | Compound
16 | 12 nM | 105% | COc1c(C(=O)N[C@H]2CCCC[C@@H]2O)cc(Cc2ccc(-c3cn(C)nn3)cc2)c(C)c1C (relative stereo) [Example 5, N-(trans-2-hydroxycyclohexyl)-2-methoxy-3,4-dimethyl-5-(4-(1-methyl-1H-1,2,3-triazol-4-yl)benzyl)benzamide]
17 | 10 nM | 96% | COc1c(C(=O)N[C@H]2CCCC[C@@H]2O)cc(Cc2ccc(-c3ccn(C)n3)nc2)c(C)c1C [Example 21, N-((1S,2S)-2-hydroxycyclohexyl)-2-methoxy-3,4-dimethyl-5-((6-(1-methyl-1H-pyrazol-3-yl)pyridin-3-yl)methyl)benzamide]
18 | 9.4 nM | 102% | COc1c(C(=O)N[C@H]2COCC[C@@H]2O)cc(Cc2ccc(-c3cn(C)nn3)cc2)c(C)c1C [Example 13, N-((3S,4S)-4-hydroxytetrahydro-2H-pyran-3-yl)-2-methoxy-3,4-dimethyl-5-(4-(1-methyl-1H-1,2,3-triazol-4-yl)benzyl)benzamide]
19 | 8.6 nM | 98% | COc1c(C(=O)N[C@H]2CCCC[C@@H]2O)cc(Cc2ccc(-n3ccnn3)cc2)c(C)c1C [Example 14, N-((1S,2S)-2-hydroxycyclohexyl)-2-methoxy-3,4-dimethyl-5-(4-(1H-1,2,3-triazol-1-yl)benzyl)benzamide]
20 | 4.8 nM | 106% | COc1c(C(=O)N[C@H]2CCCC[C@@H]2O)cc(Cc2ccc(-c3cn(C)nn3)cc2)c(C)c1C (single isomer, unassigned) [Example 10, N-(trans-2-hydroxycyclohexyl)-2-methoxy-3,4-dimethyl-5-(4-(1-methyl-1H-1,2,3-triazol-4-yl)benzyl)benzamide]
21 | 2.6 nM | 95% | COc1c(C(=O)N[C@H]2CCOC[C@@H]2O)cc(Cc2ccc(-c3cn(C)nn3)cc2)c(C)c1C [Example 24, 1,5-anhydro-2,3-dideoxy-3-((2-methoxy-3,4-dimethyl-5-(4-(1-methyl-1H-1,2,3-triazol-4-yl)benzyl)benzoyl)amino)-L-threo-pentitol]
